# Data from ChEMBL document CHEMBL5247574, “Recent Progress on Bile Acid Receptor Modulators for Treatment of Metabolic Diseases” (J Med Chem, 2016).
# Assays:
# [1] = target: T1, Bile acid receptor (Homo sapiens, UniProt Q96RI1); assay: Agonist activity at human GST-tagged FXR LBD (193 to 472 residues) by FRET assay
# T1 sequence (Q96RI1 whole entry): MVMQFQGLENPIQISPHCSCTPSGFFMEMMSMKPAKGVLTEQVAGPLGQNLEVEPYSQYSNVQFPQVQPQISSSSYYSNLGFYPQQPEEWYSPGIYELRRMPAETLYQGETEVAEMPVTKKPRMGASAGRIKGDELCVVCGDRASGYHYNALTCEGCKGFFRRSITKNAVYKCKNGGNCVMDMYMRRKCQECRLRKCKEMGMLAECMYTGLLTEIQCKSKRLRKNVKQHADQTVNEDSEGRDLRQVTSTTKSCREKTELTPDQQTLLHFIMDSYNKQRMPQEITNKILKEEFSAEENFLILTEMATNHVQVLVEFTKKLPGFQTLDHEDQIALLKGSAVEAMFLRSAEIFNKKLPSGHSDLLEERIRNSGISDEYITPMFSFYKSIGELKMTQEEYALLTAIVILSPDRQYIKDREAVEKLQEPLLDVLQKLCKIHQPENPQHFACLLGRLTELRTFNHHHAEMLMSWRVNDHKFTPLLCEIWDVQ
# [2] = target: T2, G-protein coupled bile acid receptor 1 (Mus musculus) (UniProt Q80SS6); assay: In vivo agonist activity at TGR5 in mouse assessed as increase in insulin level at 30 mg/kg, po relative to control
# T2 sequence (whole entry): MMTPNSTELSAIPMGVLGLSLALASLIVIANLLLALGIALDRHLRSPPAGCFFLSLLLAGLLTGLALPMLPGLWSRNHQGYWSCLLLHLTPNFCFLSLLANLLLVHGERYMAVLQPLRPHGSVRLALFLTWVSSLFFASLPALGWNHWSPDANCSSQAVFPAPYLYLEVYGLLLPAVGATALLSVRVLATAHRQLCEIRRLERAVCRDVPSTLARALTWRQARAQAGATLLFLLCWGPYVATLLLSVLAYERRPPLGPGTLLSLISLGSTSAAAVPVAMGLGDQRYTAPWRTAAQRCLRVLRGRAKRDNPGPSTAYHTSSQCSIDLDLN
# [3] = target: T2, G-protein coupled bile acid receptor 1 (Mus musculus); assay: In vivo agonist activity at TGR5 in mouse assessed as reduction in blood glucose level at 30 mg/kg, po relative to control; format: functional, organism-based; parameters: scale not given: the % may be the effect or the level left
# [4] = target: T2, G-protein coupled bile acid receptor 1 (Mus musculus); assay: In vivo agonist activity at TGR5 in mouse assessed as increase in GLP-1 secretion level at 30 mg/kg, po relative to control
# [5] = target: T3, G-protein coupled bile acid receptor 1 (Homo sapiens, UniProt Q8TDU6); assay: Agonist activity at TGR5 in human HEK293 cells assessed as increase in cAMP production; format: cell-based
# T3 sequence (Q8TDU6 whole entry): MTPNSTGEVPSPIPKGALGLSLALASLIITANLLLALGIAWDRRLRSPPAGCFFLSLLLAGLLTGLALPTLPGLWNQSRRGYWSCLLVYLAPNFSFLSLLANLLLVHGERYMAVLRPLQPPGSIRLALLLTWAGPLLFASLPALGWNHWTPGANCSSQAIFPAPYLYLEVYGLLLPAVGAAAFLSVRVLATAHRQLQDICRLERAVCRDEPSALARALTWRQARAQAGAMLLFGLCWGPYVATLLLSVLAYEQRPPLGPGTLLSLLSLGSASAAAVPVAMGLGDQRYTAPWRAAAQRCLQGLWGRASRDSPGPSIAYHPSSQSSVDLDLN
# [6] = Clearance in human liver microsomes; format: ADME, Microsome; settings: microsomes
# [7] = Clearance in mouse liver microsomes; format: ADME, Microsome; settings: microsomes
# [8] = target: T4, G-protein coupled bile acid receptor 1 (Mus musculus, UniProt Q80SS6); assay: Agonist activity at mouse TGR5
# T4 sequence (Q80SS6 whole entry): T2 sequence (whole entry)
# [9] = Aqueous solubility of compound; format: physicochemical; settings: buffer
# [10] = target: T1, Bile acid receptor; assay: Antagonist activity at FXR (unknown origin) by HTFR assay
# [11] = target: T3, G-protein coupled bile acid receptor 1; assay: Agonist activity at human TGR5 expressed in human HEK293 cells measured after 5.5 hrs by steady-glo luciferase assay; format: cell-based
# [12] = target: T5, G-protein coupled bile acid receptor 1 (Homo sapiens) (UniProt Q8TDU6); assay: Agonist activity at human TGR5 expressed in human HEK293 cells at 20 uM measured after 5.5 hrs by steady-glo luciferase assay relative to control; format: cell-based; settings: filed as agonist
# T5 sequence (whole entry): T3 sequence (Q8TDU6 whole entry)
# [13] = target: T6, G-protein coupled bile acid receptor 1 (Rattus norvegicus) (UniProt Q80T02); assay: Agonist activity at TGR5 in rat Primary intestinal cell assessed as stimulation of GLP-1 secretion incubated for 2 hrs by ELISA analysis relative to control; format: cell-based; settings: filed as agonist
# T6 sequence (whole entry): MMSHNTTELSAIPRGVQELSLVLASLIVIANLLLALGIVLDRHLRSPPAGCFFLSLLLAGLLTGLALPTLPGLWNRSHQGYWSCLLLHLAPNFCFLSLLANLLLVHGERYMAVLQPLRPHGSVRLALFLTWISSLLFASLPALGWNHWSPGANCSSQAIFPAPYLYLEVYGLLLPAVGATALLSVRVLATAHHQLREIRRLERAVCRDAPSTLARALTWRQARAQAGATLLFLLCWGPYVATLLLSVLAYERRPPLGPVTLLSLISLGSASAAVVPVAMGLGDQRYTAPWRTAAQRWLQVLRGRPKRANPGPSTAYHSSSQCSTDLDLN
# [14] = target: T2, G-protein coupled bile acid receptor 1 (Mus musculus); assay: In vivo agonist activity at TGR5 in C57/Bl6 mouse assessed as increase in GLP-1 secretion at 30 mg/kg, po relative to control; format: functional, organism-based
# [15] = target: T5, G-protein coupled bile acid receptor 1 (Homo sapiens); assay: Agonist activity at human TGR5 transfected in CHO cells assessed as increase in cAMP production at 100 nM relative to control; format: cell-based; settings: filed as agonist
# [16] = target: T3, G-protein coupled bile acid receptor 1; assay: Agonist activity at human TGR5; settings: read-out: pEC50 (converted)
# [17] = target: T5, G-protein coupled bile acid receptor 1 (Homo sapiens); assay: Agonist activity at human TGR5 transfected in CHO cells assessed as increase in cAMP production at 1 uM relative to control; format: cell-based; settings: filed as agonist
# [18] = target: T1, Bile acid receptor; assay: Agonist activity at FXR (unknown origin)
# [19] = target: T3, G-protein coupled bile acid receptor 1; assay: Agonist activity at human TGR5 transfected in CHO-K1 cells assessed as increase in cAMP production; format: cell-based
# [20] = target: T5, G-protein coupled bile acid receptor 1 (Homo sapiens); assay: Agonist activity at human TGR5 transfected in human NCI-H716 cells assessed as increase in cAMP production at 10 uM relative to control; format: cell-based; settings: filed as agonist
# [21] = target: T5, G-protein coupled bile acid receptor 1 (Homo sapiens); assay: Agonist activity at human TGR5 transfected in human NCI-H716 cells assessed as increase in GLP-1 secretion at 5 uM relative to control; format: cell-based; settings: filed as agonist
smiles,measurement,setting,value
O=C(O)c1ccc2nc(N3CCC(OCc4c([C@H]5CCCC[C@@H]5C(F)(F)F)noc4C4CC4)CC3)sc2c1 (stereo in doubt; form 2),EC50,[1],0.245 µM
O=c1c2ccccc2nc(-c2ccc(F)cc2)n1NCc1ccc(Br)cc1,Activity,[2],130%
same,Activity,[3],52%
same,Activity,[4],70%
same,EC50,[5],< 10 µM
O=C(O)c1ccc2nc(N3CCC(OCc4c([C@H]5CCCC[C@@H]5C(F)(F)F)noc4C4CC4)CC3)sc2c1 (stereo in doubt; form 1),EC50,[1],0.064 µM
O=C(c1cccnc1Oc1cc(Cl)ccc1Cl)N1CCCc2ccccc21,CLH,[6],1418 mL/min/g
same,CLH,[7],2134 mL/min/g
same,EC50,[8],2.56 µM
same,solubility,[9],< 1 µg/mL
CC(C)c1onc(-c2c(Cl)cccc2Cl)c1COc1ccn(Cc2ccc(-c3ccccc3C(=O)O)cc2)n1,EC50,[10],6 µM
Fc1ccccc1-c1ccncc1CN1C(c2ccccc2)=NOC1c1cc(C(F)(F)F)cc(C(F)(F)F)c1 (stereo not drawn),EC50,[11],0.079 µM
same,Activity,[12],93%
O=C1COc2nccc(-c3ccccc3F)c2CN1Cc1cc(C(F)(F)F)cc(C(F)(F)F)c1,Activity,[13],360%
Cc1noc2cc(Cl)c(Oc3ccncc3C(=O)N3CCN(C4CC4)c4ccccc43)cc12,EC50,[5],0.00043 µM
COc1ccc(C(C)(C)c2cnc(SCCNCc3cccnc3)n2-c2ccc(F)cc2)cc1OC,Activity,[14],320%
same,Activity,[15],129%
COc1ccc(C(C)(C)c2nnc(SCCOc3ccc(-n4cnc(-c5ccsc5)c4)cc3)n2-c2ccc(F)cc2)cc1OC,Activity,[15],147%
COc1ccc(S(=O)(=O)N2CCCN(S(=O)(=O)c3ccc(OC)c(OC)c3)CC2)cc1OC [SB-756050],EC50,[16],1 µM
COc1ccc(C(C)(C)c2cnc(SCCOc3c(F)cccc3Cl)n2-c2ccc(F)cc2)cc1OC,Activity,[15],97%
O=C(c1cccnc1Oc1cccc(C(F)(F)F)c1)N1CCCc2ccccc21,EC50,[8],2.02 µM
Fc1cccc(F)c1-c1ccncc1CN1C(c2ccco2)=NOC1c1ccccc1 (stereo not drawn),EC50,[5],< 0.1 µM
O=C(c1cc(C(F)(F)F)cc(C(F)(F)F)c1)N1CCOc2nccc(-c3ccccc3)c2C1,Activity,[17],100%
O=C(Nc1cc(Cl)ccc1-c1nc2cc(F)c(F)cc2n1CC1CCCCC1)c1ccc(-c2nnn[nH]2)cc1F,IC50,[18],0.0004 µM
Cc1c(Cl)cccc1OCCCC(=O)N1CCC(Cc2cccc(C(=O)NCCS(=O)(=O)O)c2)c2ccccc21 (stereo not drawn),EC50,[19],0.024 µM
CC(C)c1onc(-c2c(Cl)cccc2Cl)c1COc1ccn(-c2cccc(C(=O)O)c2)n1,EC50,[10],80 µM
CNc1cccc([C@H]2O[C@H](CC(=O)Nc3ccccc3F)C(=O)N(CC(C)C)c3ccccc32)c1,Activity,[20],100%
same,Activity,[21],157%
Brc1ccc(CCNCc2cc3ccncc3nc2-c2ccsc2)cc1,EC50,[5],< 10 µM
Fc1ccccc1-c1ccncc1CN1C(c2ccco2)=NOC1c1cc(C(F)(F)F)cc(C(F)(F)F)c1 (stereo not drawn),EC50,[11],0.015 µM
same,Activity,[12],102%
Cc1ccc(-c2csc3nnc(SCc4c(F)cccc4Cl)n23)cc1,EC50,[5],< 0.0005 µM
Fc1ccc(-n2c(COc3cccc4cnccc34)nc3ccccc32)c(Cl)c1,EC50,[5],0.229 µM
